# Measurements taken from patent publication US20250115597A1, “TYK2 INHIBITORS AND COMPOSITIONS AND METHODS THEREOF” (LYNK PHARMACEUTICALS CO. LTD., priority 2021, published 2025).
# Like-named read-outs stand apart in the source and are kept apart here.
# Legend:
# [1] = target: T1, Ba/F3-FL-TYK2-P760L cells (Homo sapiens, UniProt P29597, P760L, cells depend on it); experiment: Anti-proliferative assay, Ba/F3-FL-TYK2-P760L cells (Cell-Titer Glo); type: cell-based; conditions: 72 h, read-out: BaF3-FL-T2P760L IC50
# T1 construct: BaF3-FL-T2P760L (nM)
# T1 sequence (P29597 whole entry P760L): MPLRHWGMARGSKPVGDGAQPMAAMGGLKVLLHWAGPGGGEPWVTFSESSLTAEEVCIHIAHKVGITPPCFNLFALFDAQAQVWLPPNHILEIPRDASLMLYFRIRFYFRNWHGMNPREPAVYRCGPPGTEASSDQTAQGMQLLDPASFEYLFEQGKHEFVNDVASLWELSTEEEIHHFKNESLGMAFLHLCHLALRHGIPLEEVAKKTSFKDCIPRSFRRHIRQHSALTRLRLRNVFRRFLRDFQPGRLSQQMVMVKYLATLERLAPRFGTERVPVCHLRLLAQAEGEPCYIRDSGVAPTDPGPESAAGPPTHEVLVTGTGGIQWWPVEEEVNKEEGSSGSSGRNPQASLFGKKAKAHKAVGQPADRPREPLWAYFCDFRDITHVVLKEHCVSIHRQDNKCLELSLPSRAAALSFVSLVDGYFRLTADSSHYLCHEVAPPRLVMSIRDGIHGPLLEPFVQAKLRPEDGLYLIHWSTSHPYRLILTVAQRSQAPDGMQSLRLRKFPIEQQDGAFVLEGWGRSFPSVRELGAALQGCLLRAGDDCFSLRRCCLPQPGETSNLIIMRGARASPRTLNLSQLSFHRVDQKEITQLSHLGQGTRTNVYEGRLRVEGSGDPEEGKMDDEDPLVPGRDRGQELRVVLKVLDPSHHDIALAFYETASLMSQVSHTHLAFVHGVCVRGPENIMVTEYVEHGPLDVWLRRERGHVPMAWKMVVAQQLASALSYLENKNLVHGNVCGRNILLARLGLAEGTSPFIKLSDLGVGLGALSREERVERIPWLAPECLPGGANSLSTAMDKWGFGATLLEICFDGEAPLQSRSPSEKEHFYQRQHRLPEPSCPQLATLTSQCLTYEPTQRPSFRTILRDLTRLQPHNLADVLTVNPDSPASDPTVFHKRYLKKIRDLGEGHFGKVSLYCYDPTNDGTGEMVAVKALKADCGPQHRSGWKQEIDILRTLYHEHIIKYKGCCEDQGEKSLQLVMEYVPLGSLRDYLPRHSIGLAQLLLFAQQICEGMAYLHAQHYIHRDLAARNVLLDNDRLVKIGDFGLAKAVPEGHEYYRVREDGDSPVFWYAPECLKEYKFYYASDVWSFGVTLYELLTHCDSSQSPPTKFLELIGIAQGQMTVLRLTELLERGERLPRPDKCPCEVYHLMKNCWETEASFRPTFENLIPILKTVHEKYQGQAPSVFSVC
# In short: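 Compound exposure ran 72 h at 37 °C in 5% CO2 across nine 3-fold concentrations from a 20 μM top dose, added 24 h after seeding 2000 cells/well.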
# pSTAT1 [2] = experiment: Phosphorylation inhibition of STAT in human whole blood, IFN-alpha stimulated (flow cytometry); type: cell-based; conditions: 20 min; human whole blood, IFN-alpha 20 mins, CD3 cells; read-out: IC50 on pSTAT1 inhibition in h WB
# In short: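 Readout is pSTAT1 (Y701) in CD3-stained cells by flow cytometry, with IC50 derived from a 4-parameter logistic equation. Fresh human PBMC or fresh whole blood received a 20-min Universal Type I IFN-alpha stimulation before fixation and cold permeabilization.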
# pSTAT1 [3] = experiment: Phosphorylation inhibition of STAT in human PBMC, IFN-alpha stimulated (flow cytometry); type: cell-based; conditions: 20 min; human PBMC, IFN-alpha 20 mins, CD3 cells; read-out: IC50 on pSTAT1 inhibition in hPBMC
# Experimental: Phosphorylation Inhibition of STAT in Human PBMC and Human Whole Blood Testing:
# The inhibitory potential of test articles in human PBMC and human whole blood assay was evaluated by the method of flow cytometry.
# IFN-alpha will activate JAK1 and TYK2 kinase in T cells by binding to IFN receptors, and then lead to phosphorylation of STAT1 and STAT2. The phosphorylated STAT1 enter nuclear and promote transcription and expression of IFN-gamma. To evaluate the efficacy of TYK2i in T cells, freshly prepared human PBMC or freshly collected human whole blood will be stimulated with certain unit of human IFN-alpha (Universal Type I IFN(1MU), R&D, 11200-2) for 20 mins in incubator. After stimulation, fix cells with Phosflow™ Fix Buffer I (BD, 557870), and then collect fixed cells by centrifugation (500 g, 8 min). Wash cells once with pre-cooled PBS, and then permeabilize cells with cold Perm Buffer III buffer (BD, 558050) for 45 mins on ice. Collect cells by centrifugation (600 g, 8 min) and washed twice with cold PBS. Stain cells with anti-human CD3 (FITC Mouse Anti-Human CD3, BD, 555332) and anti-pSTAT1_Y701(Alexa Fluor 647 Mouse Anti-Stat1 (pY701), BD, 612597) antibodies. Detect pSTAT1 by flow cytometry (CytoFlex S) and analyze data with FlowJo and GraphPad Prism 8 software. IC50 values of test articles were determined using 4-parameter logistic equation.
# [4] = Microsomal metabolic stability assay; type: in vitro ADME; conditions: pH 7.4, 0.5 mg/mL protein, 1 μM compound
# In short: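 Parent loss was tracked by LC/MS/MS at 0, 5, 15, 30 and 45 min, with half-life derived from the ln(% remaining)–time slope. Incubation at 37 °C, pH 7.4 phosphate/EDTA buffer: 0.5 mg/mL microsomes, 1 μM compound, NADPH-regenerated (2 mM).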
# JAK1 = target: T2, JAK1 (Homo sapiens, UniProt P23458); experiment: JAK1 kinase activity, microfluidic assay (Caliper EZ Reader II); type: biochemical; conditions: JAK1 5 nM, 1 mM ATP
# T2 construct: purchased Carna Biosciences
# T2 sequence (P23458 whole entry): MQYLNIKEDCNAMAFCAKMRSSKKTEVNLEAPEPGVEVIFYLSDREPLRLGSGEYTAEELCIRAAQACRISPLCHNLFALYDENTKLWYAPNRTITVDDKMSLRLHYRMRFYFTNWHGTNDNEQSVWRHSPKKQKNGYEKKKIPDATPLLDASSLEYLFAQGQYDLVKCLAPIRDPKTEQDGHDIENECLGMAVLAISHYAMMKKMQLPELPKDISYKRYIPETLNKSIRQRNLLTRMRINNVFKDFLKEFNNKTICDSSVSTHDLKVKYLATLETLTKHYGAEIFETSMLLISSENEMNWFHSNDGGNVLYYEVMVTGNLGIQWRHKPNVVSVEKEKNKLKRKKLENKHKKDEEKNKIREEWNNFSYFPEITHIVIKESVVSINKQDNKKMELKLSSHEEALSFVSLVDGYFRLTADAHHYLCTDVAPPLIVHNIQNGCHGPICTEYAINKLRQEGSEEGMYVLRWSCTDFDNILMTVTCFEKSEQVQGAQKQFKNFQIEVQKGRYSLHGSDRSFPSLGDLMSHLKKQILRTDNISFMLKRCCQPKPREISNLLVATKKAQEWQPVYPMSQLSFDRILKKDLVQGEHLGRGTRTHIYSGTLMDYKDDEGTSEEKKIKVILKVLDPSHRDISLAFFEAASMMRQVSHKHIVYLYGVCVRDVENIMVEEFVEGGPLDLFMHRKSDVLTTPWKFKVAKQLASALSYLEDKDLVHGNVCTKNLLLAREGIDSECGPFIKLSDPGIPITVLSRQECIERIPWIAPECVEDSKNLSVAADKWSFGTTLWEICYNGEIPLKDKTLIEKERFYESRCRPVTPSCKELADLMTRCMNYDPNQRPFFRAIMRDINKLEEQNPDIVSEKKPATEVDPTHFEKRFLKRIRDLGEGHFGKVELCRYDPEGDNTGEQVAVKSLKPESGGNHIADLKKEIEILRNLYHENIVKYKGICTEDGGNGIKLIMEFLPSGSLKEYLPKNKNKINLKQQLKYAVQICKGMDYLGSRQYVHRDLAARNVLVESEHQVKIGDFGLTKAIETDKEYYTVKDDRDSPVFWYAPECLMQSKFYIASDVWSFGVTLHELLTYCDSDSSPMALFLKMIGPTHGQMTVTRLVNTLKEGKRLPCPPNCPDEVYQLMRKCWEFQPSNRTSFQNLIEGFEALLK
# In short: (§1)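 Human JAK1, JAK2 or TYK2 enzyme was used in 50 mM HEPES, 10 mM MgCl2, 2 mM DTT and 0.01% Brij35, tuned to 10% conversion of a FAM-labelled peptide. Threefold dilutions of compound (top 5 µM, 1% DMSO) were pre-incubated with enzyme for 10 min, and reactions were stopped with EDTA. Phosphorylation was read by microfluidic mobility shift, and IC50 came from percent-inhibition curves.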
# JAK2 = target: T3, JAK2 (Homo sapiens, UniProt O60674); experiment: JAK2 kinase activity, microfluidic assay (Caliper EZ Reader II); type: biochemical; conditions: JAK2 0.125 nM, 1 mM ATP
# T3 construct: purchased Carna Biosciences
# T3 sequence (O60674 whole entry): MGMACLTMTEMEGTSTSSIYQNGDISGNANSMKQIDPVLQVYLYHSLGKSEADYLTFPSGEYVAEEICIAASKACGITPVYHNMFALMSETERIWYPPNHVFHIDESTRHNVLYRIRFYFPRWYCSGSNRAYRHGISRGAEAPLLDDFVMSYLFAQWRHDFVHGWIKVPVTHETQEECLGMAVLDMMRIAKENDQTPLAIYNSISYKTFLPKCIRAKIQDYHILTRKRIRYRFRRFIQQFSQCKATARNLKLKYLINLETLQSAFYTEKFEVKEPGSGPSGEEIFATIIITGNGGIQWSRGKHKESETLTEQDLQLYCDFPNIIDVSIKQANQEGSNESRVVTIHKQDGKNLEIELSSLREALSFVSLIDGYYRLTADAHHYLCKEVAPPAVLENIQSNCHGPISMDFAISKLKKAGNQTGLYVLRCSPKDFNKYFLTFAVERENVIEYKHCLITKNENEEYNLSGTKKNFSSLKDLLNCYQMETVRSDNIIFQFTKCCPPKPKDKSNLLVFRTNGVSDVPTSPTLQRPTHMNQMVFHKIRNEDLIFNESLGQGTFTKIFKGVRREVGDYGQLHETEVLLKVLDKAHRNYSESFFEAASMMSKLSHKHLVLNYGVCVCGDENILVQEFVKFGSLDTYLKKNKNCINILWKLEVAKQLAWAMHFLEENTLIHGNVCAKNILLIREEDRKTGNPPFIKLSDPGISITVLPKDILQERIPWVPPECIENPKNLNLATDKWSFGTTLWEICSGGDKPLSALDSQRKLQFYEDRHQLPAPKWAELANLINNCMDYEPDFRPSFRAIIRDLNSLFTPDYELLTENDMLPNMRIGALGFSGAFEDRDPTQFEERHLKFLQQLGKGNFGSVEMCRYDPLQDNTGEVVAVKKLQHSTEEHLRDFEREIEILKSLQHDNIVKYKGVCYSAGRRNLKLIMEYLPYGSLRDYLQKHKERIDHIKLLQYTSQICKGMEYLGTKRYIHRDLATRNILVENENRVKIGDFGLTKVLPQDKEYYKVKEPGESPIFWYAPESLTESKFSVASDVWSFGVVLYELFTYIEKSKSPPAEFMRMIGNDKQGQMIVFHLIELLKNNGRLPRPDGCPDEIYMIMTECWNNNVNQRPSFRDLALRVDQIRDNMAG
# In short: as §1
# TYK2 = target: T4, TYK2 (Homo sapiens, UniProt P29597); experiment: TYK2 kinase activity, microfluidic assay (Caliper EZ Reader II); type: biochemical; conditions: TYK2 1 nM, 1 mM ATP
# T4 construct: purchased Carna Biosciences
# T4 sequence (P29597 whole entry): as the sequence (P29597 whole entry P760L) above, with L760P counted along it
# In short: as §1
# Ba/F3-TEL-TYK2 cells = target: T5, Ba/F3-TEL-TYK2 cells (Homo sapiens, UniProt P29597); experiment: Anti-proliferative assay, Ba/F3-TEL-TYK2 cells (Cell-Titer Glo); type: cell-based; conditions: 72 h, read-out: BaF3-TEL-TYK2 IC50
# T5 construct: fused on or other part: Dimerization domain of TEL (ETV6) fused to the TYK2 kinase domain; P41212 (Transcription factor ETV6)
# T5 sequence (P29597 whole entry, change not shown, the tested form may be a part): as the sequence (P29597 whole entry P760L) above, with L760P counted along it
# Experimental: (§2) Anti-Proliferative Assay Dimerization domain of Tel protein fused with JAK kinase domain was permanently transduced into Ba/F3 cells, whose proliferation is dependent on JAK activity in the absence of IL-3 induction. These engineered Ba/F3 cells (Ba/F3-FL-TYK2-[…], Ba/F3-TEL-TYK2 and Ba/F3-TEL-JAK2) were used to monitor JAK inhibitory activities of the compounds in the cellular. […] Cells were seeded at 2000/well of white flat bottom 96-well plates. The well containing medium only was used as background control. After 24 h growth, cells were treated with compounds. The test compounds were dissolved in DMSO to a stock concentration of 20 mM. 3-fold serially diluted compounds for 9 concentrations with top concentration of 20 μM was added into the each well. […] The cells continued to grow at 37° C. in 5% CO2 for 72 h after compound treatment. The viability was measured by cellular ATP determination using the Cell-Titer Glo luciferase reagent (Promega). The Luminescence value was recorded by a multi-label reader Envision (PerkinElmer).
# Ba/F3-TEL-JAK2 cells = target: T6, Ba/F3-TEL-JAK2 cells (Homo sapiens, UniProt O60674); experiment: Anti-proliferative assay, Ba/F3-TEL-JAK2 cells (Cell-Titer Glo); type: cell-based; conditions: 72 h, read-out: BaF3-TEL-JAK2 IC50
# T6 construct: fused on or other part: Dimerization domain of TEL (ETV6) fused to the JAK2 kinase domain; P41212 (Transcription factor ETV6)
# T6 sequence (O60674 whole entry, change not shown, the tested form may be a part): as the sequence (O60674 whole entry) above
# Experimental: as §2
# TYK2-JH2 domain = target: T7, TYK2-JH2 domain (Homo sapiens, UniProt P29597); experiment: Binding activity test for JH2 domain of TYK2 (Tb-antibody/tracer FRET)
# T7 construct: IC50 on JH2 domain activity (nM)
# T7 sequence (P29597 589-875 limits assumed): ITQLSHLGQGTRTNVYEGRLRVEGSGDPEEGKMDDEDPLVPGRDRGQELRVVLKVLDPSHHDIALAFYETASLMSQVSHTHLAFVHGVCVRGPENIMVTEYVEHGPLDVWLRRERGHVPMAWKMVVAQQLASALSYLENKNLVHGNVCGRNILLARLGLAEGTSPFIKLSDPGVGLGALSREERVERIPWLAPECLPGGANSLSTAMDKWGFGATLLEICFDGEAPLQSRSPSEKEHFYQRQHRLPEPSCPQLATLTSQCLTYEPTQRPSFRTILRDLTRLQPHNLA
# In short: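 FRET read-out after 60 min at 25° C plus overnight at 4° C; tracer displacement detected via Tb-labelled antibody on the JH2 domain. Dose-response used 11 points at 3-fold dilution.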
# [5] = Plasma protein binding by equilibrium dialysis; type: in vitro ADME; conditions: human plasma, equilibrium dialysis 5 hours at 37° C.; read-out: % Bound (human) (converted)
# In short: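 Compound spiked into plasma at 0.2 and 2 μM was dialyzed against PBS for 5 h at 37° C with shaking, in duplicate. Plasma and buffer chambers were matrix-matched, protein-precipitated and analysed by LC-MS/MS to derive % unbound, % bound and % recovery.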
# [6] = dog liver microsomes, read-out: Dog LM Clint
# [7] = dog liver microsomes, read-out: Dog LM T½
# [8] = human liver microsomes, read-out: Human LM Clint
# [9] = human liver microsomes, read-out: Human LM T½
# [10] = rat liver microsomes, read-out: Rat LM Clint
# [11] = rat liver microsomes, read-out: Rat LM T½
Structure (SMILES),GI50 [1],IC50 (pSTAT1 [2]),IC50 (pSTAT1 [3]),"microsomal CLint at 1 μM [4, 6]","half-life at 1 μM [4, 7]","microsomal CLint at 1 μM [4, 8]","half-life at 1 μM [4, 9]","microsomal CLint at 1 μM [4, 10]","half-life at 1 μM [4, 11]",IC50 (JAK1),IC50 (JAK2),IC50 (TYK2),GI50 (Ba/F3-TEL-TYK2 cells),GI50 (Ba/F3-TEL-JAK2 cells),IC50 (TYK2-JH2 domain),fraction unbound at 5 h [5]
"[2H]C([2H])([2H])NC(=O)c1cnc2cc1Nc1cc(cc(-c3ncn(C4CC4)n3)c1OC)COCc1nc(ccc1F)N2 [Example 83, 11-(1-Cyclopropyl-1H-1,2,4-triazol-3-yl)-18-fluoro-10-methoxy-N-(methyl-d3)-15-oxa-2,4,8,21-tetraazatetracyclo[15.3.1.1^{3,7}.1^{9,13}]tricosa-1(20),3,5,7(23),9(22),10,12,17(21),18-nonaene-6-carboxamide]",0.0387 µM,1.58 µM,0.113 µM,26.7 µL/min/mg,0.866 h,< 11.5 µL/min/mg,> 2 h,< 11.5 µL/min/mg,> 2 h,,,,,,,
"CNC(=O)c1nnc2cc1Nc1cc(cc(-c3ncn(C)n3)c1OC)COCc1cccc(n1)N2 [Example 35, 10-Methoxy-N-methyl-11-(1-methyl-1H-1,2,4-triazol-3-yl)-15-oxa-2,4,5,8,21-pentaazatetracyclo[15.3.1.1^{3,7}.1^{9,13}]tricosa-1(21),3,5,7(23),9(22),10,12,17,19-nonaene-6-carboxamide]",0.0482 µM,,,< 18.6 µL/min/mg,> 3.1 h,21.2 µL/min/mg,2.72 h,63.8 µL/min/mg,0.905 h,> 5 µM,> 5 µM,> 5 µM,> 20 µM,0.789 µM,,
"CNC(=O)c1cnc(NC(=O)C2CC2)cc1Nc1cn(C)c2c(F)cn(C)c(=O)c12 [Example 14, 6-(Cyclopropanecarboxamido)-4-((7-fluoro-1,5-dimethyl-4-oxo-4,5-dihydro-1H-pyrrolo[3,2-c]pyridin-3-yl)amino)-N-methylnicotinamide]",0.33 µM,,,6.43 µL/min/mg,3.59 h,23.6 µL/min/mg,0.98 h,101 µL/min/mg,0.228 h,> 5 µM,> 5 µM,> 5 µM,> 20 µM,> 20 µM,,
"[2H]C([2H])([2H])NC(=O)c1cnc(Nc2cccc(C#N)c2)nc1Nc1cccc(-c2ncn(C)n2)c1OC [Example 19, 2-(3-Cyanoanilino)-4-[2-methoxy-3-(1-methyl-1,2,4-triazol-3-yl)anilino]-N-(trideuteriomethyl)pyrimidine-5-carboxamide]",0.0349 µM,,,71.2 µL/min/mg,0.812 h,4.46 µL/min/mg,12.9 h,43.6 µL/min/mg,1.32 h,> 5 µM,> 5 µM,> 5 µM,> 20 µM,4.96 µM,98 pM,0.038
"[2H]C([2H])([2H])NC(=O)c1cnc(Nc2ccc(F)cc2)nc1Nc1cccc(-c2ncn(C)n2)c1OC [Example 20, 2-(4-Fluoroanilino)-4-[2-methoxy-3-(1-methyl-1,2,4-triazol-3-yl)anilino]-N-(trideuteriomethyl)pyrimidine-5-carboxamide]",0.078 µM,,,101 µL/min/mg,0.572 h,13.3 µL/min/mg,4.36 h,45.7 µL/min/mg,1.26 h,> 5 µM,0.173 µM,> 5 µM,2.53 µM,1.18 µM,,

# Second part, the compound after the results:
GI50 [1],IC50 (pSTAT1 [2]),IC50 (pSTAT1 [3]),"microsomal CLint at 1 μM [4, 6]","half-life at 1 μM [4, 7]","microsomal CLint at 1 μM [4, 8]","half-life at 1 μM [4, 9]","microsomal CLint at 1 μM [4, 10]","half-life at 1 μM [4, 11]",IC50 (JAK1),IC50 (JAK2),IC50 (TYK2),GI50 (Ba/F3-TEL-TYK2 cells),GI50 (Ba/F3-TEL-JAK2 cells),IC50 (TYK2-JH2 domain),fraction unbound at 5 h [5],Structure (SMILES)
0.0827 µM,0.376 µM,0.0433 µM,,,,,,,,,,,,,,"[2H]C([2H])([2H])NC(=O)c1nnc(NC(=O)C2CC2)cc1Nc1cn(C)c2ccn(CC)c(=O)c12 [Example 223, 6-(Cyclopropanecarboxamido)-4-((5-ethyl-1-methyl-4-oxo-4,5-dihydro-1H-pyrrolo[3,2-c]pyridin-3-yl)amino)-N-(methyl-d3)pyridazine-3-carboxamide]"
0.0484 µM,,,,,,,,,> 5 µM,> 5 µM,> 5 µM,> 20 µM,> 20 µM,,,"CCn1ccc2scc(Nc3cc(Nc4ccc(F)cn4)ncc3C(=O)NC)c2c1=O [Example 18, 4-((5-Ethyl-4-oxo-4,5-dihydrothieno[3,2-c]pyridin-3-yl)amino)-6-((5-fluoropyridin-2-yl)amino)-N-methylnicotinamide]"
0.0545 µM,,,27.1 µL/min/mg,2.13 h,88.3 µL/min/mg,0.654 h,137 µL/min/mg,0.422 h,> 5 µM,> 5 µM,> 5 µM,4.03 µM,3.73 µM,,,"CCn1ccc2c(c(Nc3cc(Nc4ccc(F)cn4)ncc3C(=O)NC)cn2C)c1=O [Example 10, 4-((5-Ethyl-1-methyl-4-oxo-4,5-dihydro-1H-pyrrolo[3,2-c]pyridin-3-yl)amino)-6-((5-fluoropyridin-2-yl)amino)-N-methylnicotinamide]"
